From article PMC9115709, “TIMP‐1‐expressing breast tumor spheroids for the evaluation of drug penetration and efficacy” (Bioengineering & Translational Medicine, 2021)
Where two headings read alike, the source gives them in different places.

Legend:
MDA-MB-231 cells = assay: IC50 in MDA-MB-231 monolayer cells; format: cell-based, human
[1] = system: hASC monocellular spheroids; assay: Drug efficacy in hASC monocellular spheroids; format: cell-based, human; conditions: drug at IC50 of MDA-MB-231 monolayer cells, 2 days
Procedure: (§1) To form 3D multicellular tumor spheroids, cells was trypsinized and suspended in the growth media. Stromal cells and breast cancer cells were plated with a density of 5 × 10^3 cells /25 μL into 96‐well plate precoated with poly‐HEMA, respectively, resulting in 1 × 10^4 cells exist per each well. After seeding, the plate was centrifuged for 2 min at 1000 rpm to collect the cells in the center of the well. Fifty microliters of 10% Matrigel® Basement Membrane Matrix (Corning, NY, USA) solution diluted in media was gently added into the plate on ice to prevent matrigel from gelation. Monocellular spheroids were generated by a single culture of stromal cells or breast cancer cells. Cells were seeded with a density of 1 × 10^4 cells per well with 50 μL of 10% matrigel on a poly‐HEMA‐coated plate. Then, the plate with cells and matrigel was centrifuged at 1000 rpm for 2 min, and incubated for 48 h at 37°C with 5% CO2.

[2] = system: MDA-MB-231 monocellular spheroids; assay: Drug efficacy in MDA-MB-231 monocellular spheroids; format: cell-based, human; conditions: drug at IC50 of MDA-MB-231 monolayer cells, 2 days
Procedure: as §1

[3] = system: Multicellular spheroids with hASC and MDA-MB-231; assay: Permeability value (PV) in the 3D tumor model; conditions: PV = EffA:M - 1/2(EffASC + EffMDA), Equation (4)
Procedure: Therefore, we defined the permeability value (PV) of each drug as the difference in efficacy in multicellular and monocellular spheroids, as determined by Equation (4).
After treating the drug with spheroids for 2 days, the efficacy of the drug was evaluated by CellTiter‐Glo® 3D Cell Viability Assay (Promega). […] (4) PV=EffA:M−1/2EffASC+EffMDA.

[4] = system: hASC-co-cultured spheroids (A:M); assay: Drug penetration (intrinsic fluorescence) in hASC-co-cultured tumor spheroids; format: cell-based, human; conditions: for Amount of drug inside the spheroids compared to other spheroids: 10 μM, 48 h, fluorescence microscopy, vs hBMSC- or hDF-co-cultured spheroids; for Amount of drug penetrating the spheroids, TIMP-1 silencing vs control siRNA: hASCs transfected with siTIMP-1, 48 h treatment
Procedure: (§2) We next tested whether ECM deposition on the surface of spheroids would affect the penetration of anticancer drugs and their efficacy. Three types of 3D multicellular tumor spheroids were formed and treated with 10 μM doxorubicin, epirubicin, or topotecan, which are chemotherapeutic agents for various tumors, including breast cancer, for an additional 48 h.
as §1
(§3) Spheroids were transferred to an opaque‐walled multiwall plate and analyzed by ATP‐based cell viability assays using Real Time‐Glo™ MT Cell Viability Assay (Promega, Madison, WI, USA) according to the manufacturer's protocol. […] Necrotic cells of spheroids were analyzed in Real Time‐Glo™ Annexin V Necrosis Assay (Promega) following the manufacturer's instructions. Luminescence was measured using a Glomax discovery multi Microplate Reader (Glomax discovery, Promega) with an integration time of 0.25–1.0 s per well.

[5] = system: hBMSC-co-cultured spheroids (B:M); assay: Drug penetration (intrinsic fluorescence) in hBMSC-co-cultured tumor spheroids; format: cell-based, human; conditions: 10 μM, 48 h, fluorescence microscopy
Procedure: as §2, §1, §3

[6] = system: hDF-co-cultured spheroids (F:M); assay: Drug penetration (intrinsic fluorescence) in hDF-co-cultured tumor spheroids; format: cell-based, human; conditions: 10 μM, 48 h, fluorescence microscopy
Procedure: as §2, §1, §3

[7] = system: hASC-co-cultured spheroids (A:M); assay: Drug efficacy in multicellular tumor spheroids, Real Time-Glo MT Cell Viability Assay; format: cell-based, human; conditions: hASCs transfected with siTIMP-1, 48 h treatment
Procedure: as §3

[8] = system: 3D multicellular tumor spheroids; assay: Necrosis in tumor spheroids, Real Time-Glo Annexin V Necrosis Assay; format: cell-based, human; conditions: A:M spheroids with control siRNA or siTIMP-1 hASCs
[9] = system: Multicellular spheroids with hASC and MDA-MB-231; assay: Drug efficacy in hASC and MDA-MB-231 multicellular (A:M) spheroids, CellTiter-Glo 3D; format: cell-based, human; conditions: drug at IC50 of MDA-MB-231 monolayer cells, 2 days
Procedure: as §1

[10] = Homo sapiens, MDA-MB-231 monolayer cells, read-out: MDA-MB-231 IC50

Structure (SMILES) | IC50 (MDA-MB-231 cells; [10]) [µM] | hASC spheroid Efficacy (EffASC, %) [1] [%] | MDA spheroid Efficacy (EffMDA, %) [2] [%] | Experiment's PV #1 [3] | Experiment's PV #2 [3] | Experiment's PV #3 [3] | Amount of drug inside the spheroids compared to other spheroids [4] | Amount of drug penetrating the spheroids, TIMP-1 silencing vs control siRNA [4] | Distribution of drug inside the spheroids [5] | Distribution of drug inside the spheroids [6] | Drug efficacy, TIMP-1-silenced hASCs vs control [7] | Necrotic cells after drug treatment [8] | IC50 (MDA-MB-231 cells; MDA-MB-231 monolayer cells, read-out: MDA-MB-231 IC50) [µM] | A:M spheroid Efficacy (EffA:M, %) [9] [%] | IC50 (MDA-MB-231 cells; Homo sapiens, MDA-MB-231, read-out: MDA-MB-231 IC50) [µM]
CC(=O)O[C@H]1C(=O)[C@@]2(C)[C@H]([C@H](OC(=O)c3ccccc3)[C@]3(O)C[C@H](OC(=O)[C@H](O)[C@@H](NC(=O)c4ccccc4)c4ccccc4)C(C)=C1C3(C)C)[C@]1(OC(C)=O)CO[C@@H]1C[C@@H]2O [Paclitaxel] | 2.38 | 97.404 | 72.690 | -0.047 | -0.071 | -0.023 | – | – | – | – | – | – | – | – | –
CCc1c2c(nc3ccc(O)cc13)-c1cc3c(c(=O)n1C2)COC(=O)[C@]3(O)CC [SN38, 7-ethyl-10-hydroxycamptothecin] | 1.87 | 60.449 | 58.491 | 0.031 | 0.035 | 0.027 | – | – | – | – | – | – | – | – | –
CCCCCOC(=O)Nc1nc(=O)n([C@@H]2O[C@H](C)[C@@H](O)[C@H]2O)cc1F [Capecitabine] | 95 | 99.895 | 99.873 | 0.000 | 0.001 | 0.000 | – | – | – | – | – | – | – | – | –
CC[C@@]1(O)C(=O)OCc2c1cc1n(c2=O)Cc2cc3c(CN(C)C)c(O)ccc3nc2-1 [topotecan] | – | – | – | – | – | – | significant reduction | significantly increased | distributed throughout | distributed throughout | significantly increased | Few necrotic cells | – | – | –
COc1cc([C@@H]2c3cc4c(cc3[C@@H](O[C@@H]3O[C@@H]5CO[C@@H](C)O[C@H]5[C@H](O)[C@H]3O)[C@H]3COC(=O)[C@H]23)OCO4)cc(OC)c1O [Etoposide] | 32.6 | 73.263 | 64.897 | 0.029 | 0.043 | 0.016 | – | – | – | – | – | – | – | – | –
CN(C)c1nc(N(C)C)nc(N(C)C)n1 [Altretamine] | 64.5 | 41.038 | 36.883 | 0.025 | 0.062 | -0.012 | – | – | – | – | – | – | – | – | –
COc1cccc2c1C(=O)c1c(O)c3c(c(O)c1C2=O)C[C@@](O)(C(=O)CO)C[C@@H]3O[C@H]1C[C@H](N)[C@H](O)[C@H](C)O1 [Doxorubicin, doxorubicin] | – | – | – | – | – | – | significant reduction | significantly increased | distributed throughout | distributed throughout | significantly increased | Few necrotic cells | – | – | –
COc1cccc2c1C(=O)c1c(O)c3c(c(O)c1C2=O)C[C@@](O)(C(=O)CO)C[C@@H]3O[C@H]1C[C@H](N)[C@@H](O)[C@H](C)O1 [Epirubicin] | 1.57 | 45.548 | 23.696 | -0.096 | -0.017 | -0.056 | significant reduction | significantly increased | distributed throughout | distributed throughout | significantly increased | Few necrotic cells | – | – | –
CC[C@@]1(O)C(=O)OCc2c1cc1n(c2=O)Cc2cc3c([N+](=O)[O-])cccc3nc2-1 [Rubitecan] | 0.82 | 17.266 | 25.373 | – | – | – | – | – | – | – | – | – | – | – | –
CC#C[C@]1(O)CC[C@H]2[C@@H]3CCC4=CC(=O)CCC4=C3[C@@H](c3ccc(N(C)C)cc3)C[C@@]21C [Mifepristone] | 15.4 | 91.524 | 46.672 | – | – | – | – | – | – | – | – | – | – | – | –
COC(=O)[C@]12CCC(C)(C)C[C@H]1[C@H]1C(=O)C=C3[C@@]4(C)C=C(C#N)C(=O)C(C)(C)[C@@H]4CC[C@@]3(C)[C@]1(C)CC2 [Bardoxolone-methyl] | 2.16 | 38.156 | -35.997 | – | – | – | – | – | – | – | – | – | – | – | –
CC1(C)[C@@H](O[C@H]2O[C@H](C(=O)O)[C@@H](O)[C@H](O)[C@H]2O[C@@H]2O[C@H](C(=O)O)[C@@H](O)[C@H](O)[C@H]2O)CC[C@]2(C)[C@H]3C(=O)C=C4[C@@H]5C[C@@](C)(C(=O)O)CC[C@]5(C)CC[C@@]4(C)[C@]3(C)CC[C@@H]12 [Ammonium-glycyrrhizinate] | – | 33.753 | 40.204 | -0.114 | -0.075 | -0.095 | – | – | – | – | – | – | 72.1 | 27.510 | –
Cn1ncnc1[C@H]1c2n[nH]c(=O)c3cc(F)cc(c23)N[C@@H]1c1ccc(F)cc1 [Talazoparib] | 87.4 | 99.742 | 75.508 | 0.051 | 0.057 | 0.046 | – | – | – | – | – | – | – | – | –
C/C(=C\c1csc(C)n1)[C@@H]1C[C@@H]2O[C@]2(C)CCC[C@H](C)[C@H](O)[C@@H](C)C(=O)C(C)(C)[C@@H](O)CC(=O)O1 [Patupilone, Patupilone (epothilone-b)] | 33.4 | 34.560 | 23.781 | -0.039 | -0.067 | -0.010 | – | – | – | – | – | – | – | – | –
CC[C@]1(O)C[C@@H]2CN(CCc3c([nH]c4ccccc34)[C@@](C(=O)OC)(c3cc4c(cc3OC)N(C)[C@H]3[C@@](O)(C(=O)OC)[C@H](OC(C)=O)[C@]5(CC)C=CCN6CC[C@]43[C@@H]65)C2)C1 [Vinblastine] | 1.83 | 25.299 | 9.274 | -0.060 | -0.020 | -0.100 | – | – | – | – | – | – | – | – | –
COc1ccc(N(C)c2nc(C)nc3ccccc23)cc1 [Verubulin] | – | 24.939 | 5.173 | 0.039 | 0.029 | 0.085 | – | – | – | – | – | – | – | – | 0.01
CNCc1ccc(-c2[nH]c3cc(F)cc4c3c2CCNC4=O)cc1 [Rucaparib] | 72.3 | 99.818 | 92.185 | – | – | – | – | – | – | – | – | – | – | – | –
CO[C@@]12[C@H](COC(N)=O)C3=C(C(=O)C(C)=C(N)C3=O)N1C[C@@H]1N[C@@H]12 [Mitomycin-c] | 17.5 | 64.309 | 53.401 | -0.071 | -0.097 | -0.045 | – | – | – | – | – | – | – | – | –
